The record followed here is ChEMBL document CHEMBL1139199 (Bioorg Med Chem Lett, 2007).

One may read the IC50 as the concentration needed to halve the response being measured. Broadly, the bioavailability is dose-corrected exposure relative to a reference, in per cent. A higher bioavailability goes with much systemic uptake.

The target in series [1] is Dipeptidyl peptidase 8 (Homo sapiens, UniProt Q6V1X1). Nature of the series: Inhibition of human DPP8 after 15 mins by continuous fluorescent assay.
Dipeptidyl peptidase 8, sequence (Q6V1X1 whole entry): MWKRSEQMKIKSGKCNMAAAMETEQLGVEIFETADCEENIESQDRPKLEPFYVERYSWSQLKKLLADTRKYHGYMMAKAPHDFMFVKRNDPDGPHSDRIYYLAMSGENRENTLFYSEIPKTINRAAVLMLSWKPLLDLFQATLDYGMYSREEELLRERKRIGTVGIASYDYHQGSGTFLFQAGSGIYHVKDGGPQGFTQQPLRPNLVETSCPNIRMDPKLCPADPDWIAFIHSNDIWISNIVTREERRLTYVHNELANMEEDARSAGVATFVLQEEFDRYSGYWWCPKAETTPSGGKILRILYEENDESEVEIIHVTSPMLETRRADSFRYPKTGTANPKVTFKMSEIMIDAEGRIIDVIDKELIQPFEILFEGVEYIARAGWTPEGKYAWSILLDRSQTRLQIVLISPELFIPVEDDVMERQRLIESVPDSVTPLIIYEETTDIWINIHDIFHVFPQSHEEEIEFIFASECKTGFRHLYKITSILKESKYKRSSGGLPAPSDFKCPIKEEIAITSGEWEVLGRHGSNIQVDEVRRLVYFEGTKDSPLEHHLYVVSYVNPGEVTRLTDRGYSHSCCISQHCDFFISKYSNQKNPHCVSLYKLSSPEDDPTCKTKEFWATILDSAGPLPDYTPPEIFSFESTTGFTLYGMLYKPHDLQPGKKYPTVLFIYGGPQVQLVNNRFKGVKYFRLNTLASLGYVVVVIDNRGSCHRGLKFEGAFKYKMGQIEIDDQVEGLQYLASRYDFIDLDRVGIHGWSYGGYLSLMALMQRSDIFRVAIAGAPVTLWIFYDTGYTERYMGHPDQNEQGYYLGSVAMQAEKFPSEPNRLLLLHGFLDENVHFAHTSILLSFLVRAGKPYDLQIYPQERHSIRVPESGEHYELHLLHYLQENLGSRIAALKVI
In series [2] the target is Dipeptidyl peptidase 9 (Homo sapiens, UniProt Q86TI2). In words: Inhibition of human DPP9 after 15 mins by continuous fluorescent assay.
Dipeptidyl peptidase 9, sequence (Q86TI2 whole entry): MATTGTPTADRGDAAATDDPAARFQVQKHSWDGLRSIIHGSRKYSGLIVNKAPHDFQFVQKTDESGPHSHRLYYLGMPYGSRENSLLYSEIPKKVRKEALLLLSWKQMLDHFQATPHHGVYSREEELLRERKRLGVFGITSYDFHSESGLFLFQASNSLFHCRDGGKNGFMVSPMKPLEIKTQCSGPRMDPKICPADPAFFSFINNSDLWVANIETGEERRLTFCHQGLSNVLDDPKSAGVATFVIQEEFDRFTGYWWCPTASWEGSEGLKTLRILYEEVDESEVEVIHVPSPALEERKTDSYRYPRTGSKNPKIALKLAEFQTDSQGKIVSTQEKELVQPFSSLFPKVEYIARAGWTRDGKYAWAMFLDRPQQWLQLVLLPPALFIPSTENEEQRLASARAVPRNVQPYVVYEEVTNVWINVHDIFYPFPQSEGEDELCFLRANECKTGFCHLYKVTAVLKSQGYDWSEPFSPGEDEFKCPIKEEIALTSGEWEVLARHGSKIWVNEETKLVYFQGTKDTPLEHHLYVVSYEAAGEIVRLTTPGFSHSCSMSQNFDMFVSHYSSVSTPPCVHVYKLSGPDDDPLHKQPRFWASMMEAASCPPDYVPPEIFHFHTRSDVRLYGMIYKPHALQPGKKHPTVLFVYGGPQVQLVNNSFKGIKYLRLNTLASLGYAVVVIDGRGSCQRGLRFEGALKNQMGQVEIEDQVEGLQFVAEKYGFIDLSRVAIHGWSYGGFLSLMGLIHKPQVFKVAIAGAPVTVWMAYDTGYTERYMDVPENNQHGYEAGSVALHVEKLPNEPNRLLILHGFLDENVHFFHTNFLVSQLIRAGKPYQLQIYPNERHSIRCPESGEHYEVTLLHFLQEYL
Series [3] can be described thus: Oral bioavailability in rat at 2 mg/kg, po. Particulars: in vivo. Format: ADME, organism-based.
Series [4] addresses Voltage-gated inwardly rectifying potassium channel KCNH2 (Homo sapiens, UniProt Q12809). Nature of the series: Inhibition of cardiac hERG. On the technique in general: The hERG channel carries a current that helps repolarise heart muscle cells.
A short description of series [5]: Plasma clearance in rat at 1 mg/kg, iv or 2 mg/kg, po. The class given is ADME, organism-based.
Series [6] concerns the target Dipeptidyl peptidase 2 (Homo sapiens, UniProt Q9UHL4). In words: Inhibition of human recombinant QPP expressed in SF9 cells.
A short description of series [7]: Plasma clearance in dog at 1 mg/kg, iv or 2 mg/kg, po. Format: ADME, organism-based, Canis lupus familiaris.
Series [8] can be described thus: Oral bioavailability in dog at 2 mg/kg, po. Format: ADME, organism-based, Canis lupus familiaris. The conditions noted are these: in vivo.
The species entered for series [9] is Mus musculus. Nature of the series: Reduction of blood glucose excursion in mouse by OGTT. The class given is functional, organism-based.

Voltage-gated inwardly rectifying potassium channel KCNH2, sequence (Q12809 whole entry): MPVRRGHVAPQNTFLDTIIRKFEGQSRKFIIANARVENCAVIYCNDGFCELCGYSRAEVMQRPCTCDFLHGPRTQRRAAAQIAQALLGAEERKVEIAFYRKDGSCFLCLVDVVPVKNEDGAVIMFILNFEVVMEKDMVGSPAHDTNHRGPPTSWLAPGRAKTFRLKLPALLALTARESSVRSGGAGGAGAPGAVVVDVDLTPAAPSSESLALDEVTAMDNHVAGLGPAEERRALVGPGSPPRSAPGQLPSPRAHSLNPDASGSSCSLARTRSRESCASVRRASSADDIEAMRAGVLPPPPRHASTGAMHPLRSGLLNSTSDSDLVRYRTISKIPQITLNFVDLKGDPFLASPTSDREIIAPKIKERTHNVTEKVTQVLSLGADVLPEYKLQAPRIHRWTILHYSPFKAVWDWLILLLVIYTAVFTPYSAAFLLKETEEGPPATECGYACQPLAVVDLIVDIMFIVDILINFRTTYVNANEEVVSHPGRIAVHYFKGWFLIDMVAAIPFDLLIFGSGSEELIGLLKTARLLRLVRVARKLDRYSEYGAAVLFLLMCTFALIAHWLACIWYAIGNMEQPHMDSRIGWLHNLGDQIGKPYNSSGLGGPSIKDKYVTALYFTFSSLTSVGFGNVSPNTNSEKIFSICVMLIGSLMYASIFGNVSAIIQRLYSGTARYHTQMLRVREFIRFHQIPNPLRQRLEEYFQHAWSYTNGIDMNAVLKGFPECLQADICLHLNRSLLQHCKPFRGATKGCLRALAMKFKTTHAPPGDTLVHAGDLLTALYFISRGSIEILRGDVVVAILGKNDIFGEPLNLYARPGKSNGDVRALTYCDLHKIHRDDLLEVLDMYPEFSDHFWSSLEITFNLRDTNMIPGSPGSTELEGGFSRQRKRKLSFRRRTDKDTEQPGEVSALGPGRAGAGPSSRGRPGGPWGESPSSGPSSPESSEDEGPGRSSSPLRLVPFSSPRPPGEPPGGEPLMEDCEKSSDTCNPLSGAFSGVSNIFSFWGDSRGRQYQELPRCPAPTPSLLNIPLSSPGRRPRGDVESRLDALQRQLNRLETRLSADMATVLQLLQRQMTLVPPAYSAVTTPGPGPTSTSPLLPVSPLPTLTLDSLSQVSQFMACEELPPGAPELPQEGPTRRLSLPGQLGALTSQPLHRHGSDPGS

As for `CN(C)C(=O)[C@@H](C1CCC(NS(=O)(=O)c2ccc(F)cc2F)CC1)[C@H](N)C(=O)N1CC[C@H](F)C1` (some centres undefined), the IC50 in series [1] and in series [2] was more than 100 µM throughout.
`CN(C)C(=O)[C@@H](C1CCC(N(C)C(=O)c2cccc(F)c2)CC1)[C@H](N)C(=O)N1CC[C@H](F)C1.Cl` (some centres undefined): the IC50 was more than 100 µM in series [1], more than 100 µM in series [2] and more than 90 µM in series [4]. The molecule further came in with a bioavailability in series [3] of 25%. In series [5], this molecule yielded a clearance of 27 mL/min/kg.
Turning to `C[C@@H](C1CCC(N(C)C(=O)c2cccc(F)c2)CC1)[C@H](N)C(=O)N1CC[C@H](F)C1.Cl` (some centres undefined), the bioavailability in series [3] stood at 72%. Further, in [5], the clearance came out at 40 mL/min/kg.
With `CN(C)C(=O)[C@@H](C1CCC(NS(=O)(=O)c2ccc(OC(F)(F)F)cc2)CC1)[C@H](N)C(=O)N1CC[C@H](F)C1` (some centres undefined), the IC50 in series [1] and in series [2] was more than 100 µM in each case.
`Cc1ccc(S(=O)(=O)N(C)c2ccc([C@H](C(=O)N(C)C)[C@H](N)C(=O)N3CC[C@H](F)C3)cc2)cc1`: the IC50 in series [1], in series [2] and in series [6] was more than 100 µM in each case.
Regarding `C[C@@H](c1ccc(N(C)C(=O)c2ccc(F)cc2)cc1)[C@H](N)C(=O)N1CC[C@H](F)C1`, the IC50 in [1] and in series [2] was more than 100 µM throughout.
As for `CC(=O)N(C)c1ccc([C@H](C(=O)N(C)C)[C@H](N)C(=O)N2CC[C@H](F)C2)cc1`, the IC50 in series [1], in series [2] and in series [6] was more than 100 µM in each case.
Molecule `Cl.N[C@H](C(=O)N1CC[C@H](F)C1)C1CCC(NS(=O)(=O)c2ccc(F)cc2F)CC1` (some centres undefined) gave a clearance in series [5] of 24 mL/min/kg.
`C[C@@H](C1CCC(N(C)C(=O)C2CC2)CC1)[C@H](N)C(=O)N1CC[C@H](F)C1.Cl` (some centres undefined) had a bioavailability in [3] of 46%. This molecule returned a clearance in series [5] of 49 mL/min/kg.
On to `Cc1ccc(C(=O)N(C)c2ccc([C@H](C(=O)N(C)C)[C@H](N)C(=O)N3CC[C@H](F)C3)cc2)cc1`, for which the half-inhibitory concentration (IC50) in [1], in series [2] and in series [6] was more than 100 µM in each case.
In the case of `CN(C)C(=O)[C@@H](c1ccc(N(C)C(=O)c2ccc(F)cc2)cc1)[C@H](N)C(=O)N1CC[C@H](F)C1.O=C(O)C(F)(F)F`, the IC50 in [1] is more than 100 µM; in series [2], more than 100 µM; in series [4] it was more than 90 µM; in series [6], more than 100 µM. The bioavailability in series [3] is 6%. For the same molecule, the clearance in series [5] turned out to be 73 mL/min/kg.
Regarding `CC(=O)N(C)C1CCC([C@H](C(=O)N(C)C)[C@H](N)C(=O)N2CC[C@H](F)C2)CC1.Cl` (some centres undefined), the IC50 in [1] and in series [2] was more than 100 µM in each case. The bioavailability in [3] came to 3%. Further, the clearance in [5] turned out to be 18 mL/min/kg.
`CC(=O)Nc1ccc([C@H](C(=O)N(C)C)[C@H](N)C(=O)N2CC[C@H](F)C2)cc1`: the IC50 in series [2] and in series [6] was more than 100 µM each time.
On to `CN(C)C(=O)[C@@H](c1ccc(NS(=O)(=O)c2ccccc2)cc1)[C@H](N)C(=O)N1CC[C@H](F)C1`, for which the IC50 in series [1] and in series [2] was more than 100 µM throughout.
As to `CC(=O)N(C)c1ccc([C@H](C)[C@H](N)C(=O)N2CC[C@H](F)C2)cc1`, the IC50 in [1] and in series [2] was more than 100 µM throughout.
As for `CC(=O)Nc1ccc([C@H](C)[C@H](N)C(=O)N2CC[C@H](F)C2)cc1`, the IC50 in series [2] is more than 100 µM.
As to `CC(=O)N(C)C1CCC([C@H](C)[C@H](N)C(=O)N2CC[C@H](F)C2)CC1.Cl` (some centres undefined), the figures for the clearance in series [7] and in [5] were 4.4 mL/min/kg and 42 mL/min/kg, respectively. In addition, the results for the bioavailability in [8] and in series [3] were 83% and 56%, respectively. Further, the IC50 in [2] is more than 100 µM; in [4] it was more than 90 µM. Besides, the Activity result in series [9] was “Dose-dependent effect”.
